This passage reports Activity, IC50 and logP results from ChEMBL document CHEMBL4007427, “Inhibition of the Aldehyde Dehydrogenase 1/2 Family by Psoralen and Coumarin Derivatives” (J Med Chem, 2017).

Data set [1] deals with T1, Aldehyde dehydrogenase 1A1 (Homo sapiens) (UniProt P00352).
T1 sequence (whole entry): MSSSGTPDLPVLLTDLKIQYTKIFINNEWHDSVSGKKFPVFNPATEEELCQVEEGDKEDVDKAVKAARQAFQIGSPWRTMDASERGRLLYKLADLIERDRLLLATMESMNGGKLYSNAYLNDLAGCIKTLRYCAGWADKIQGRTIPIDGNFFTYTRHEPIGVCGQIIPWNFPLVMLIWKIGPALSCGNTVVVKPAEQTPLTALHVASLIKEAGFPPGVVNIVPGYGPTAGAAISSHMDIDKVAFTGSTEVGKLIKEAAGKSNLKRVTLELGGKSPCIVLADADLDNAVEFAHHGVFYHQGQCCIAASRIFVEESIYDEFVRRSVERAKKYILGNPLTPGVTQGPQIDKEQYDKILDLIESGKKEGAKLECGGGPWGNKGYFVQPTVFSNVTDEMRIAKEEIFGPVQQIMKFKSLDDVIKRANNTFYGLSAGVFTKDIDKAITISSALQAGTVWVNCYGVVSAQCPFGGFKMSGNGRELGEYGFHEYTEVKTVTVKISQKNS
The experiment in a line: Inhibition of full length recombinant human ALDH1A1 expressed in Escherichia coli BL21(DE3) assessed as remaining dehydrogenase activity by measuring NAD(P)H level at 10 uM preincubated for 2 mins followed by addition of propionaldehyde as substrate in presence of NAD+ by spectrophotometric method.

Data set [2] has as its target T2, Aldehyde dehydrogenase, mitochondrial (Homo sapiens) (UniProt P05091).
T2 sequence (whole entry): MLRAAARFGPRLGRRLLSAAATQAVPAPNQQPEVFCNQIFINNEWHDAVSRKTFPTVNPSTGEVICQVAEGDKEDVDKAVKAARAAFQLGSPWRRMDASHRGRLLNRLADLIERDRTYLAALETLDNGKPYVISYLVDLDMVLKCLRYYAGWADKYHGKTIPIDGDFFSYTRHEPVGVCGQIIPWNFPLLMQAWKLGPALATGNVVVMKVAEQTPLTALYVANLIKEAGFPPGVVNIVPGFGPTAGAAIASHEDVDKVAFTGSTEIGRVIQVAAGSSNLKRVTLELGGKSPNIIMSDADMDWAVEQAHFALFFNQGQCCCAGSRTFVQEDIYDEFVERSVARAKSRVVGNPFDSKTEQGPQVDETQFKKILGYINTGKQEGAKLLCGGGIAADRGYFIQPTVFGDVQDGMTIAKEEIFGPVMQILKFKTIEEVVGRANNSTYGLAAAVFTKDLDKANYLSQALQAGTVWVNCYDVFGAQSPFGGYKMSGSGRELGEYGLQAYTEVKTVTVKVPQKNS
Nature of the data set: Inhibition of full length recombinant human ALDH2 expressed in Escherichia coli assessed as remaining dehydrogenase activity by measuring NAD(P)H level at 10 uM preincubated for 2 mins followed by addition of propionaldehyde as substrate in presence of NAD+ by spectrophotometric method.

Data set [3] has as its target T3, Aldehyde dehydrogenase 1A1 (Homo sapiens, UniProt P00352).
T3 sequence (P00352 whole entry): T1 sequence (whole entry)
Description: Inhibition of full length recombinant human ALDH1A1 expressed in Escherichia coli BL21(DE3) assessed as reduction in dehydrogenase activity by measuring NAD(P)H level preincubated for 2 mins followed by addition of propionaldehyde as substrate in presence of NAD+ by spectrophotometric method

Data set [4] concerns the target T4, Aldehyde dehydrogenase, dimeric NADP-preferring (Homo sapiens) (UniProt P30838).
T4 sequence (whole entry): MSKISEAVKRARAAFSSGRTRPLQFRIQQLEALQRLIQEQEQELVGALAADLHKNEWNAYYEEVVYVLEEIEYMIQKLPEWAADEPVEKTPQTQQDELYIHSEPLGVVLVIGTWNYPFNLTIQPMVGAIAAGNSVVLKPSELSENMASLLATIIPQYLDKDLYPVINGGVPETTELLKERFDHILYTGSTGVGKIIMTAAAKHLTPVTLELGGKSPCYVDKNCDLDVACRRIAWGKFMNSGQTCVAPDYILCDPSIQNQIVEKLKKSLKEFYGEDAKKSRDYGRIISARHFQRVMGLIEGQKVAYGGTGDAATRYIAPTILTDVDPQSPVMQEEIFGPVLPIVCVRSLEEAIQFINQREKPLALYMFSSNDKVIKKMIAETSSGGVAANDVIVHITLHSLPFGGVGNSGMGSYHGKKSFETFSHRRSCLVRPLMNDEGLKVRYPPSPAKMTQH
Nature of the data set: Inhibition of full length recombinant human ALDH3A1 expressed in Escherichia coli BL21(DE3) assessed as remaining dehydrogenase activity by measuring NAD(P)H level at 10 uM preincubated for 2 mins followed by addition of propionaldehyde as substrate in presence of NAD+ by spectrophotometric method.

A short description of data set [5]: Lipophilicity, log P of the compound. As to conditions: octanol/water; call rule not given here. It is filed as physicochemical.
In data set [6] the target is T5, Aldehyde dehydrogenase, mitochondrial (Homo sapiens, UniProt P05091).
T5 sequence (P05091 whole entry): T2 sequence (whole entry)
Description: Inhibition of full length recombinant human ALDH2 expressed in Escherichia coli assessed as reduction in dehydrogenase activity by measuring NAD(P)H level preincubated for 2 mins followed by addition of propionaldehyde as substrate in presence of NAD+ by spectrophotometric method

The target of data set [7] is T6, Aldehyde dehydrogenase, dimeric NADP-preferring (Homo sapiens, UniProt P30838).
T6 sequence (P30838 whole entry): T4 sequence (whole entry)
Nature of the data set: Inhibition of full length recombinant human ALDH3A1 expressed in Escherichia coli BL21(DE3) assessed as reduction in dehydrogenase activity by measuring NAD(P)H level preincubated for 2 mins followed by addition of benzaldehyde as substrate in presence of NADP+ by spectrophotometric method.

Molecules are shown by their SMILES.

The IC50 is the concentration needed to halve the response being measured. The term logP denotes a log measure of how a compound divides between an organic and an aqueous phase. Turning to `Cc1oc2cc3oc(=O)c4ccccc4c3cc2c1C`, the figures for the Activity in data set [1], in data set [2] and in data set [4] were 82.4%, 42.2% and 93.4%, respectively. Also, the half-maximal inhibitory concentration (IC50) result was “Not Active” in data set [3], 150 nM in data set [6] and “Not Active” in data set [7]. The lipophilicity (logP) in data set [5] stood at 3.89.
Take `Cc1c(C)c2cc3c(-c4ccccc4)coc3cc2oc1=O`: the Activity in data set [1] came to 87.4%; in data set [2] it was 92.8%; in data set [4], 88.9%. This molecule displayed a logP in data set [5] of 4.8.
Turning to `Cc1oc2cc3oc(=O)cc(Cc4ccccc4)c3cc2c1C`, the values for the Activity in data set [1], in data set [2] and in data set [4] were 57%, 73.7% and 81.6%, respectively. The same molecule showed a logP in data set [5] of 4.8.
With `Cc1c(C)c2cc3c(=O)ccoc3c(C)c2oc1=O`, the Activity is 67.4% in data set [1], 80.2% in data set [2] and 79.2% in data set [4]. The log partition coefficient (logP) in data set [5] worked out at 2.1.
On to `Cc1c(C)c2cc3c4c(oc3cc2oc1=O)CCCC4`, for which the Activity in data set [1] turned out to be 64.3%; in data set [2], 61.3%; in data set [4] it was 96.1%. The molecule further showed a lipophilicity (logP) in data set [5] of 4.48.
Take `CC(=O)C(C)Oc1ccc2c(c1)oc(=O)c1ccccc12` (stereo not drawn): the Activity was 58.7% in data set [1], 64.4% in data set [2] and 103% in data set [4]. Moreover, the log partition coefficient (logP) in data set [5] is 2.64.
Consider `CC(C)=CCOc1ccc2c(C)cc(=O)oc2c1`, for which the Activity in data set [1] came to 37.3%; in data set [2] it was 93.3%; in data set [4], 23.7%. Besides, in data set [5], the log partition coefficient (logP) is 3.94.
For `Cc1c(C)c2cc3c(C(C)(C)C)coc3cc2oc1=O`, the values for the Activity in data set [1], in data set [2] and in data set [4] were 94.5%, 69.7% and 87%, respectively. The molecule also returned a lipophilicity (logP) in data set [5] of 3.94.
With `CC(=O)C(C)Oc1ccc2c(C)cc(=O)oc2c1` (stereo not drawn), the Activity in data set [1] amounted to 68.7%; in data set [2], 94.4%; in data set [4], 101%. In addition, the logP in data set [5] came out at 1.72.
Turning to `COc1ccc2c(C)cc(=O)oc2c1` [HYMECROMONE METHYL ETHER], the Activity is 80.2% in data set [1], 94.8% in data set [2] and 36.4% in data set [4]. Also, the logP in data set [5] amounted to 2.46.
`Cc1c(C)c2c(cc(C)c3c(C)coc32)oc1=O`: the values for the Activity in data set [1], in data set [2] and in data set [4] were 71.5%, 46.4% and 98.1%, respectively. Also, the IC50 entry in data set [3] is “Not Active”; in data set [6], 150 nM; in data set [7], “Not Active”. The molecule also registered a log partition coefficient (logP) in data set [5] of 3.92.
Turning to `Cc1cc(=O)oc2cc(OCC(=O)Nc3ccccc3)ccc12`, the values for the Activity in data set [1], in data set [2] and in data set [4] were 49.6%, 95% and 95.5%, respectively. For the same molecule, the logP in data set [5] was 2.85.
In the case of `Cc1cc(=O)oc2cc(OCC(=O)c3ccccc3)ccc12`, the Activity in data set [1] is 29%; in data set [2] it was 97.8%; in data set [4], 67.1%. This molecule yielded a log partition coefficient (logP) in data set [5] of 3.19.
`Cc1cc(=O)oc2cc(OCC(N)=O)ccc12`: the Activity was 28.5% in data set [1], 89.5% in data set [2] and 67.1% in data set [4]. This molecule gave a lipophilicity (logP) in data set [5] of 1.71.
Take `Cc1oc2cc3oc(=O)c(CCC(=O)NCc4ccccc4)c(C)c3cc2c1C`: the Activity stood at 93.6% in data set [1], 69.8% in data set [2] and 68.3% in data set [4]. The molecule also returned a log partition coefficient (logP) in data set [5] of 4.52.
Consider `Cc1cc2oc(=O)cc(C)c2cc1NC(=O)C(C)C`, for which the Activity in data set [1] was determined as 59.8%; in data set [2] it was 96.3%; in data set [4] it was 105%. The log partition coefficient (logP) in data set [5] was 2.05.
In the case of `CC(=O)COc1ccc2c(C)cc(=O)oc2c1`, the Activity in data set [1] came to 52.2%; in data set [2], 99.1%; in data set [4], 64.1%. For the same molecule, the logP in data set [5] came out at 1.37.
Consider `Cc1oc2c(C)c3oc(=O)c(C)c(C)c3cc2c1C`, for which the Activity in data set [1] came out at 78.4%; in data set [2] it was 87.2%; in data set [4], 102%. In data set [5], the lipophilicity (logP) turned out to be 4.36.
Regarding `Cc1c(CCC(=O)O)c(=O)oc2cc(O)ccc12`, the Activity in data set [1] turned out to be 96.6%; in data set [2] it was 101%; in data set [4], 105%. The log partition coefficient (logP) in data set [5] came out at 1.82.
Consider `C=CCOc1ccc2c(C)cc(=O)oc2c1`, for which the figures for the Activity in data set [1], in data set [2] and in data set [4] were 35.5%, 94.6% and 9.46%, respectively. Besides, in data set [5], the log partition coefficient (logP) was 3.01.
Consider `Cc1cc(=O)oc2cc(OC(C)C(=O)O)ccc12` (stereo not drawn), for which the Activity in data set [1] was determined as 97.5%; in data set [2], 99.3%; in data set [4], 93.9%. In data set [5], this molecule had a logP of 1.63.
As to `Cc1coc2cc3oc(=O)c(Cc4ccccc4)c(C)c3cc12`, the Activity in data set [1] was determined as 58.5%; in data set [2], 83.6%; in data set [4], 90.3%. Besides, the lipophilicity (logP) in data set [5] stood at 4.98.
In the case of `CC(=O)C(C)Oc1ccc2ccc(=O)oc2c1` (stereo not drawn), the Activity in data set [1] was found to be 91.4%; in data set [2] it was 93.3%; in data set [4] it was 106%. The log partition coefficient (logP) in data set [5] was found to be 1.4.
